The text below walks through data of ChEMBL document CHEMBL1201862, “PubChem BioAssay data set” (2004).

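Method: 48-hour compound exposure of cells in 96-well plates, five concentrations, linear interpolation of endpoints. GI50: concentration for 50% inhibition of growth.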 Calls of active or inactive are those of the source. Cut-off read from the data, not from the text of the source: active = GI50 up to about 1.1 µM and inactive = higher. Some results are limits rather than exact numbers.

Test systems include NCI-H522; SN12C; SW-620; HCT-116; SK-OV-3; SF-268; HCT-15; MDA-N; LOX IMVI; OVCAR-8; EKVX; SK-MEL-28; U-251; HOP-62; SF-539; UO-31; Hs-578T; CAKI-1; MOLT-4.
Assay in all cases: growth of human tumour cells (NCI), 48 h

`CC(C)(CO)N1CCN(C(S)=Nc2ccccc2)CC1`: the GI50 in the test on NCI-H522, in the test with SN12C, with SW-620, in the test with HCT-116, in the test with SK-OV-3 and in the test on SF-268 was > 100 µM (inactive) each time. Further, the GI50 in the test on HCT-15 is > 100 µM; in the test on MDA-N, > 100 µM (inactive); in the test with LOX IMVI it was > 100 µM (inactive); with OVCAR-8, > 100 µM (inactive); in the test with EKVX, > 100 µM (inactive); in the test on SK-MEL-28, > 100 µM (inactive). Besides, the GI50 with U-251, in the test on HOP-62, with SF-539, in the test with UO-31, with Hs-578T and with CAKI-1 was > 100 µM (inactive) in each case.
With `CCCCCCc1cc2cc(C(=O)NCc3ccccc3)c(=N)oc2cc1O`, the GI50 in the test with NCI-H522, in the test with SN12C, in the test on MOLT-4, in the test on SW-620, in the test on HCT-116 and with SK-OV-3 was > 100 µM (inactive) throughout. The GI50 is > 100 µM (inactive) in the test on SF-268; > 100 µM in the test with HCT-15; > 100 µM (inactive) in the test with MDA-N; > 100 µM (inactive) in the test with LOX IMVI; > 100 µM (inactive) in the test on OVCAR-8; > 100 µM (inactive) with EKVX. In addition, the GI50 in the test with SK-MEL-28, in the test on U-251, in the test with HOP-62, in the test with SF-539, in the test on Hs-578T and with CAKI-1 was > 100 µM (inactive) throughout.
Regarding `COCCOC(=O)c1c(C)[n+]([O-])c2cc(Cl)c(Cl)cc2[n+]1[O-]`, the GI50 in the test on NCI-H522 is 17.1 µM (inactive); with SN12C, 20 µM (inactive); with MOLT-4 it was 13.1 µM (inactive); in the test on SW-620, 20 µM (inactive); with SK-OV-3, 17.9 µM (inactive); with SF-268 it was 14.2 µM (inactive). Also, the GI50 with HCT-15 was 8.71 µM; in the test on MDA-N it was 23.2 µM (inactive); with LOX IMVI it was 13.5 µM (inactive); in the test with OVCAR-8 it was 7.06 µM (inactive); in the test with EKVX, 17.1 µM (inactive); in the test with SK-MEL-28, 28.4 µM (inactive). The GI50 was 9.82 µM (inactive) in the test on U-251; 11 µM (inactive) in the test on HOP-62; 22.6 µM (inactive) with SF-539; 0.311 µM (active) in the test with UO-31; 32.7 µM (inactive) in the test with Hs-578T; 19 µM (inactive) in the test on CAKI-1.
`COc1ccc(/N=N/c2c(O)ccc3ccccc23)cc1`: the GI50 with NCI-H522 is 23 µM (inactive); in the test with SN12C, > 100 µM (inactive); with MOLT-4, > 100 µM (inactive); in the test on SW-620 it was 86.1 µM (inactive); in the test with HCT-116 it was > 100 µM (inactive); in the test with SK-OV-3, 8.2 µM (inactive). Moreover, the GI50 in the test on SF-268 is 16.1 µM (inactive); in the test on HCT-15, 57.8 µM; in the test on MDA-N, > 100 µM (inactive); with LOX IMVI it was 49.2 µM (inactive); with OVCAR-8 it was 13.2 µM (inactive); in the test on EKVX, 14.3 µM (inactive). The GI50 in the test on SK-MEL-28 is > 100 µM (inactive); in the test with U-251 it was 15.8 µM (inactive); in the test with HOP-62, 13.8 µM (inactive); in the test with UO-31, 31.3 µM (inactive); in the test on Hs-578T, 11.2 µM (inactive); in the test with CAKI-1 it was > 100 µM (inactive).
Turning to `Cn1c(N)c(/C=N/NC(=O)CC#N)c(=O)n(C)c1=O`, the GI50 in the test on NCI-H522, with SN12C, with MOLT-4, in the test with SW-620, in the test with HCT-116 and in the test with SK-OV-3 was > 100 µM (inactive) each time. For the same compound, the GI50 in the test on SF-268 was > 100 µM (inactive); in the test with HCT-15, > 100 µM; in the test on MDA-N, > 100 µM (inactive); with LOX IMVI, > 100 µM (inactive); with OVCAR-8, > 100 µM (inactive); with EKVX, > 100 µM (inactive). The GI50 in the test with SK-MEL-28, in the test with U-251, in the test on HOP-62, in the test on UO-31, with Hs-578T and in the test on CAKI-1 was > 100 µM (inactive) each time.
As to `NC(=S)NS(=O)(=O)c1ccc(Cl)cc1`, the GI50 in the test with NCI-H522, in the test with SN12C, in the test on MOLT-4, with SW-620, with HCT-116 and in the test with SK-OV-3 was > 100 µM (inactive) in each case. The GI50 in the test on SF-268 is > 100 µM (inactive); in the test with HCT-15, > 100 µM; with MDA-N, > 100 µM (inactive); in the test with LOX IMVI, > 100 µM (inactive); in the test on OVCAR-8, > 100 µM (inactive); in the test with EKVX it was 83.2 µM (inactive). Moreover, the GI50 in the test on SK-MEL-28, in the test on U-251, with HOP-62, in the test on SF-539, in the test with Hs-578T and in the test on CAKI-1 was > 100 µM (inactive) each time.
For the compound `CCOC(=O)C(=O)C(CCC(=O)c1ccc2ccccc2c1O)C(=O)OCC` (stereo not given), the GI50 in the test on NCI-H522, in the test with SN12C, in the test on MOLT-4, in the test on SW-620, with HCT-116 and with SK-OV-3 was > 100 µM (inactive) throughout. For the same compound, the GI50 was > 100 µM (inactive) in the test with SF-268; > 100 µM with HCT-15; > 100 µM (inactive) with MDA-N; > 100 µM (inactive) in the test with LOX IMVI; > 100 µM (inactive) in the test with OVCAR-8; > 100 µM (inactive) in the test with EKVX. Also, the GI50 in the test on SK-MEL-28, with U-251, in the test with SF-539, with UO-31, in the test with Hs-578T and in the test on CAKI-1 was > 100 µM (inactive) throughout.
`Cc1ccc(C)n1-n1c(-c2ccccc2)n[nH]c1=O`: the GI50 in the test with NCI-H522, with SN12C, in the test on MOLT-4, with SW-620, in the test with HCT-116 and in the test with SK-OV-3 was > 100 µM (inactive) each time. Besides, the GI50 in the test on SF-268 is > 100 µM (inactive); with HCT-15 it was > 100 µM; in the test on MDA-N, 24.8 µM (inactive); with LOX IMVI, > 100 µM (inactive); with OVCAR-8, > 100 µM (inactive); in the test on EKVX, > 100 µM (inactive). Also, the GI50 in the test on SK-MEL-28, with U-251, with HOP-62, in the test on UO-31, in the test on Hs-578T and in the test with CAKI-1 was > 100 µM (inactive) each time.
Consider `C=CCc1c(Cl)nc(Cl)nc1Cl`, for which the GI50 in the test on NCI-H522 was < 0.0191 µM (active); with SN12C, 0.258 µM (active); in the test on MOLT-4, 0.0102 µM (active); in the test on SW-620, 0.0495 µM (active); in the test on HCT-116, 0.352 µM (active); with SK-OV-3 it was 1.32 µM (inactive). The GI50 in the test on SF-268 is 1.66 µM (inactive); with HCT-15, 0.0873 µM; with MDA-N, 0.0308 µM (active); in the test with LOX IMVI, < 0.0115 µM (active); with OVCAR-8, 0.274 µM (active); in the test on EKVX, 1.02 µM (active). Besides, the GI50 was 0.431 µM (active) in the test on SK-MEL-28; 0.578 µM (active) with U-251; 0.515 µM (active) in the test on HOP-62; 1.04 µM (active) in the test with SF-539; 0.0748 µM (active) in the test with UO-31; 0.368 µM (active) in the test on Hs-578T. In the test with CAKI-1, the GI50 was 0.0176 µM (active).
With `COC(=O)CC1c2ccccc2N2C(=O)Cc3c([nH]c4ccccc34)C12` (stereo not given), the GI50 in the test on NCI-H522, with SN12C, in the test with MOLT-4, with SW-620, in the test on HCT-116 and in the test with SK-OV-3 was > 100 µM (inactive) throughout. Further, the GI50 in the test with SF-268 was > 100 µM (inactive); with HCT-15 it was > 100 µM; with MDA-N it was > 100 µM (inactive); in the test on LOX IMVI it was > 100 µM (inactive); with OVCAR-8, > 100 µM (inactive); in the test on EKVX, > 100 µM (inactive). For the same compound, the GI50 in the test with SK-MEL-28 was > 100 µM (inactive); in the test on U-251, > 100 µM (inactive); with HOP-62, 36.5 µM (inactive); with UO-31, > 100 µM (inactive); in the test with Hs-578T, 25.4 µM (inactive); in the test on CAKI-1, > 100 µM (inactive).
Regarding `C/C(=N\NC(N)=S)c1ccccn1.OB(O)c1ccccc1`, the GI50 in the test with NCI-H522 was 1.8 µM (inactive); with SN12C, 3.52 µM (inactive); with MOLT-4, 2.07 µM (inactive); with SW-620, 5.93 µM (inactive); in the test with HCT-116, 3.5 µM (inactive); in the test with SK-OV-3, 5.57 µM (inactive). For the same compound, the GI50 in the test with SF-268 is 2.67 µM (inactive); in the test on HCT-15, 2.84 µM; in the test on MDA-N, 7.53 µM (inactive); in the test on LOX IMVI it was 2.58 µM (inactive); in the test with OVCAR-8, 3.63 µM (inactive); in the test with EKVX, 4.69 µM (inactive). Also, the GI50 in the test on SK-MEL-28 was 9.23 µM (inactive); with U-251, 3.28 µM (inactive); in the test with HOP-62, 5.5 µM (inactive); in the test with SF-539, 3.6 µM (inactive); in the test on UO-31, 2.39 µM (inactive); in the test with Hs-578T, > 100 µM (inactive). Besides, the GI50 in the test on CAKI-1 is 3.63 µM (inactive).
